These are literature values, as cited in Sander's compilation of Henry's law constants (doi:10.1016/j.chemosphere.2021.129858).

Structures are written as SMILES.

This data set can be described thus: Henry solubility constant Hcp at 298.15 K (mol/(m3 Pa)). Conditions: reference: Schwardt et al. (2021); cited value.
Regarding `c1cc2c3c(cccc3c1)CC2` [acenaphthene], the “Henry solubility constant Hcp” value was 0.054.
As for `CC(Cl)CCl` (stereo not drawn) [1,2-dichloropropane], the “Henry solubility constant Hcp” value is 0.0037.
As to `Clc1ccc(Cl)cc1` [1,4-dichlorobenzene], the “Henry solubility constant Hcp” value was 0.0032.
As to `Cc1ccccc1` [methylbenzene], the “Henry solubility constant Hcp” value was 0.0016.
For the compound `ClCC(Cl)Cl` [1,1,2-trichloroethane], the “Henry solubility constant Hcp” value is 0.011.
`Cc1ccc(Cl)cc1Cl` [2,4-dichloro-1-methylbenzene]: the “Henry solubility constant Hcp” value was 0.0027.
Take `c1ccc2c(c1)ccc1ccccc12` [phenanthrene]: the “Henry solubility constant Hcp” value is 0.21.
Regarding `CC(Cl)(Cl)Cl` [1,1,1-trichloroethane], the “Henry solubility constant Hcp” value was 0.0006.
As for `c1ccc2c(c1)-c1cccc3cccc-2c13` [benzo[jk]fluorene], the “Henry solubility constant Hcp” value was 0.58.
As to `CCCl` [chloroethane], the “Henry solubility constant Hcp” value is 0.00081.
Consider `ClC(Cl)(Cl)Cl` [tetrachloromethane], for which the “Henry solubility constant Hcp” value is 0.00034.
Take `Cc1cccc(C)c1` [1,3-dimethylbenzene]: the “Henry solubility constant Hcp” value is 0.0014.
Turning to `c1ccc2ccccc2c1` [naphthalene], the “Henry solubility constant Hcp” value is 0.021.
Consider `CCc1ccccc1` [ethylbenzene], for which the “Henry solubility constant Hcp” value is 0.0014.
Consider `Clc1cccc(Cl)c1` [1,3-dichlorobenzene], for which the “Henry solubility constant Hcp” value is 0.0031.
`Cc1ccc(C)cc1` [1,4-dimethylbenzene]: the “Henry solubility constant Hcp” value is 0.0015.
As for `ClC=C(Cl)Cl` [trichloroethene], the “Henry solubility constant Hcp” value was 0.0011.
Consider `Clc1ccccc1` [chlorobenzene], for which the “Henry solubility constant Hcp” value is 0.0024.
In the case of `c1ccccc1` [benzene], the “Henry solubility constant Hcp” value is 0.0018.
`C=C(Cl)Cl` [1,1-dichloroethene]: the “Henry solubility constant Hcp” value is 0.00037.
Consider `ClCCl` [dichloromethane], for which the “Henry solubility constant Hcp” value was 0.0039.
Turning to `CCCc1ccccc1` [propylbenzene], the “Henry solubility constant Hcp” value is 0.0009.
`ClC(Cl)=C(Cl)Cl` [tetrachloroethene]: the “Henry solubility constant Hcp” value was 0.00057.
Turning to `c1ccc2cc3ccccc3cc2c1` [anthracene], the “Henry solubility constant Hcp” value was 0.18.
Regarding `ClCC(Cl)(Cl)Cl` [1,1,1,2-tetrachloroethane], the “Henry solubility constant Hcp” value was 0.005.
As for `Cc1ccccc1C` [1,2-dimethylbenzene], the “Henry solubility constant Hcp” value is 0.002.
On to `C=CCl` [chloroethene], for which the “Henry solubility constant Hcp” value is 0.00041.
`ClC(Cl)C(Cl)Cl` [1,1,2,2-tetrachloroethane]: the “Henry solubility constant Hcp” value was 0.023.
